Measurements: US20260069581A1, “METHODS AND COMPOSITIONS FOR CANCER THERAPY” (OHIO STATE INNOVATION FOUNDATION, priority 2020, published 2026)

Columns and labels:
[1] = In vivo MOLM13 xenograft study, toxicities and weight; parameters: species or system NCG mice; conditions: over the course of the study (FIG. 11B)
From the text: FIG. 11A show H&E images of tissues obtained from MOLM13 xenograft mice that with the magnification and treatments as indicated in the figure. The images were representative of 3 different fields. […] FIG. 11B show weight change data of MOLM13 xenograft mice in response to different treatments.
In vivo MOLM13 xenograft study. All experiments were approved by the OSU Institutional Animal Care and Use Committee. Male NOD-Prkdc^em26cd52Il2rg^em26cd22/NjuCrl (NCG) mice (RRID:IMSR_CRL:572) (aged 6-8 weeks) were obtained from Charles River Laboratory. Mice were group-housed under conditions of constant photoperiod (12-hour light/12-hour dark), temperature, and humidity with adlibitum access to water and irradiated standard pelleted chow. […] luciferase-tagged MOLM13 cells were injected via tail vein into NCG mice. On day 5 post-engraftment, mice were randomized to receive placebo (vehicle; Karyopharm Therapeutics) once daily, 100 mg/kg of KPT-9274 (Karyopharm Therapeutics) once daily, 20 mg/kg AR-42 every another day and the combination of KPT-9274 and AR-42 via oral gavage. Overall survival was the primary end point for the majority of the mice. […] Mice were monitored by animal technicians who were blinded to the treatment groups and determined when mice met early removal criteria (20% weight loss, lethargy, hunching, and poor body condition). […]

[2] = system: MOLM13 cells; test: MTS cell viability of shRNA-stable or sgRNA-transfected MOLM13 cells treated with KPT-9274; assay type: cell-based, human; conditions: MOLM13, 48-hour treatment
Experimental: FIGS. 7A-7B show representative data for knockdown of selected genes has modest effects on MOLM13 responses to KPT-9274 treatment. […] For the graphs in FIGS. 7A-7B, the responses of parental, shRNA-stable and sgRNA-transfected MOLM13 cells to KPT-9274 treatment (48-hour treatments) are plotted. Cell viability was measured with MTS (y-axis). Results are shown as mean±SEM of 4 technical replicates and 3 biological replicates. Western blotting for knockdown efficiency is shown.
MTS assay. For MTS assays, AML cell lines or patient-derived cells were treated in a 96-well plate at 1-6×10^5 cells per well for 24-72 hours. Patient-derived CD34^+ primary cells were cultured in 96-well plates coated with collagen in the presence of 10 ng/ml IL-3, 10 ng/ml IL-6, 10 ng/ml SCF and 10 ng/ml GM-CSF. Cells were treated with increasing concentrations of KPT-9274 (0 nM to 10 μM) or vehicle control (dimethyl sulfoxide [DMSO]). […] MTS [3-(4,5-dimethylthiazol-2-yl)-5-(3-carboxymethoxyphenyl)-2-(4-sulfophenyl)-2H-tetrazolium](Pro-mega, Madison, WI) was incubated with drug-treated cells according to the manufacturer's instructions. Plates were read by using a BioTek synergy H4 hybrid multimode microplate reader (Thermo Fisher Scientific) at 490 nM. […]

Structure (SMILES): CC(C)[C@H](C(=O)Nc1ccc(C(=O)NO)cc1)c1ccccc1 [AR-42, (S)—N-Hydroxy-4-(3-methyl-2-phenylbutanamido)benzamide]
- weight loss [1]: did not observe any noticeable weight loss

Structure (SMILES): Nc1ccc(/C=C/C(=O)NCc2cc3cc(-c4ccc(C(=O)N5CCC(F)(F)CC5)cc4)cc(-c4ccc(F)cc4)c3o2)cn1 [KPT-9274, (E)-3-(6-aminopyridin-3-yl)-N-[[5-[4-(4,4-difluoropiperidine-1-carbonyl)phenyl]-7-(4-fluorophenyl)-1-benzofuran-2-yl]methyl]prop-2-enamide]
- synergy of knockdown of IMPA2, HEXA, PTGS1 and DCPS with KPT-9274 treatment ([2]; MTS (FIG. 7A)): did not demonstrate strong synergies
- impact of depletion of HDAC1, HDAC3 or HDAC6 with CRISPR on KPT-9274 sensitivity ([2]; MTS (FIG. 7B)): did not have significant impact
